For 3 compounds, EC50 results are on record in US10407410B2, “Pyridin-3-yl acetic acid derivatives as inhibitors of human immunodeficiency virus replication” (priority 2016, dated 2019).

A word on the EC50: it is the concentration that produces a half-maximal response. A low value points to higher potency in that assay.

This test relates to NL-RLuc virus (HIV). The test can be described thus: Inhibition of HIV replication (NL-RLuc luciferase reporter virus in MT-2 cells). Format: cell-based. The conditions noted are these: Human immunodeficiency virus 1, MT2, 120 h. The source says:
Inhibition of HIV Replication
A recombinant NL-RLuc proviral clone was constructed in which a section of the nef gene from NL4-3 was replaced with the Renilla Luciferase gene. This virus is fully infectious and can undergo multiple cycles of replication in cell culture. In addition, the luciferous reporter provides a simple and easy method for quantitating the extent of virus growth and consequently, the antiviral activity of test compounds. The plasmid pNLRLuc contains the proviral NL-Rluc DNA cloned into pUC18 at the PvuII site. The NL-RLuc virus was prepared by transfection of 293T cells with the plasmid pNLRLuc. Transfections were performed using the LipofectAMINE PLUS kit from Invitrogen (Carlsbad, Calif.) according to the manufacturer and the virus generated was titered in MT-2 cells. For susceptibility analyses, the titrated virus was used to infect MT-2 cells in the presence of compound, and after 5 days of incubation, cells were processed and quantitated for virus growth by the amount of expressed luciferase. Assay media was RPMI 1640 supplemented with 10% heat inactivated fetal bovine serum (FBS), 100 units/ml penicillin G/100 units/ml streptomycin, 10 mM HEPES buffer pH 7.55 and 2 mM L-glutamine. The results from at least 2 experiments were used to calculate the EC50 values. Luciferase was quantitated using the Dual Luciferase kit from Promega (Madison, Wis.). Susceptibility of viruses to compounds was determined by incubation in the presence of serial dilutions of the compound. The 50% effective concentration (EC50) was calculated by using the exponential form of the median effect equation where (Fa)=1/[1+(ED50/drug conc.)^m] (Johnson V A, Byington R T. Infectivity Assay. In Techniques in HIV Research. ed. Aldovini A, Walker B D. 71-76. New York: Stockton Press. 1990).

For `Cc1nc(CO)c(-c2ccc3c(c2)CCC(c2ccc(F)cc2)O3)c(N2CCC(C)(C)CC2)c1[C@H](OC(C)(C)C)C(=O)O` (stereo partly drawn) [Example 43, (2S)-2-tert-Butoxy-2-(4-(4,4-dimethylpiperidin-1-yl)-5-(2-(4-fluorophenyl)chroman-6-yl)-6-(hydroxymethyl)-2-methylpyridin-3-yl)acetic acid], the EC50 was 7 nM.

With `Cc1cccc(C2CCc3cc(-c4c(C)nc(C)c([C@H](OC(C)(C)C)C(=O)O)c4N4CCC(C)(C)CC4)ccc3O2)n1` (stereo partly drawn) [Example 44, (2S)-2-tert-Butoxy-2-(4-(4,4-dimethylpiperidin-1-yl)-2,6-dimethyl-5-(2-(6-methylpyridin-2-yl)chroman-6-yl)pyridin-3-yl)acetic acid], the response was half-maximal at 8 nM (EC50). With `Cc1cccc(C2CCc3cc(-c4c(CO)nc(C)c([C@H](OC(C)(C)C)C(=O)O)c4N4CCC(C)(C)CC4)ccc3O2)n1` (stereo partly drawn) [Example 45, (2S)-2-tert-Butoxy-2-(4-(4,4-dimethylpiperidin-1-yl)-6-(hydroxymethyl)-2-methyl-5-(2-(6-methylpyridin-2-yl)chroman-6-yl)pyridin-3-yl)acetic acid], the 50% effective concentration (EC50) was found to be 7 nM.
